Source: patent US20220340976A1, “RAPID PREDICTION OF DRUG RESPONSIVENESS” (THE BROAD INSTITUTE, INC., priority 2019, published 2022)
“Also recorded” adds a separate entry of the source.

Key:
[1] = test system: pools of well-characterized cancer cell lines; test: MIX-Seq: scRNA-seq transcriptional response profiling of drug-treated cell line pools; format: cell-based, human
Experimental: Cell line pools were made in sets of 25 cell lines. These 25 cell line pools were chosen based on doubling time and were grown in RPMI in the absence of phenol red and with 10% FBS. Cell lines were then washed with 10 mLs of PBS, and trypsinized with 1 mL trypsin which was then removed. Ten mLs of RPMI media were added to the cells post trypsinization and resuspended. Cells were then counted by a Nexcelom cellometer using 10 uL of cell suspension and 10 ul of Trypan blue. Equal numbers of cells per cell line were mixed together and spun down at 1,250 RPM for 5 minutes. Media was aspirated and the cells were resuspended in Sigma Cell Freezing media and frozen in 1 mL aliquots. This process was repeated for all of the 25 cell line pools. For MIX-Seq experiments involving larger pools, multiple 25 cell line pools were thawed in RPMI with 10% FBS, spun down and resuspended in 5 mLs of RPMI media. Cells were then counted and equal numbers were combined together on the day of plating to form larger pools of up to ˜100 cell lines.
For drug treatment experiments, cell line pools were cultured in RPMI containing 10% fetal bovine serum, in the absence of phenol red and penicillin/streptomycin. Cell line pools were validated as Mycoplasma free prior to initiating the experiment. Cell line pools were plated at 200,000 cells per well in 6 well plates containing 2 mL of RPMI culture media described above. […] Cell pools were plated ˜16-20 hours prior to drug treatment. Cells were treated with the described drugs or vehicle (DMSO) with a 0.2% final media DMSO concentration.
Generally cells were harvested after drug treatment using standard cell culture methods. Briefly, after drug treatment cells that were in suspension (presumably containing dead cells from drug treatment) were collected and reserved for addition to the adherent cell fraction. Adherent cells were washed once with 1×PBS, trypsinized in 1 mL trypsin, incubated for 3-7 minutes at 37 C, and then trypsin inactivated with 1 mL growth media. For Cell Hashing, cells were treated with TrypLE Express (ThermoFisher) instead of trypsin to reduce the amount of cell surface proteins digested that may affect the binding of Cell Hashing antibodies.
After trypsinization, adherent and suspension cells were combined for each treatment, pelleted, and resuspended in Cell Capture Buffer (lx PBS with 0.04% BSA). Cells were counted (including trypan blue non-viable cells) and resuspended at a concentration of 1,000 cells per microliter for standard loading on the Chromium Controller (10× Genomics), or at 1,500 cells per microliter for “super loaded” samples. Up to 40,000 cells were loaded per 10× channel for “super loaded” samples, with expected recovery of up to 20,000 cells per channel. Cell suspensions were captured on a 10× Chromium controller using Single Cell 3′ reagent chemistries (either version 2 or and version 3 reagents) FIG. 26.
Sequencing data were processed using 10× Cell Ranger software, run using the Cumulus cloud-based analysis framework (Li et al. 2019). Initial experiments were done with 10× Single Cell 3′ v2 chemistry, and were processed using version 2 of the Cell Ranger software. In later experiments v3 chemistry and the corresponding version 3 of Cell Ranger were used. Reads were aligned to the hg19 reference genome.
To estimate the average transcriptional response of each cell line to a perturbation, the data were first ‘sum-collapsed’—summing read counts across cells for each cell line and treatment condition—to produce a bulk RNA-seq style read counts profile for each sample (Crowell et al. 2019; Lun & Marioni 2017). […]

[2] = test system: pools of cancer cell lines; test: Relative cell line abundance estimated from pooled scRNA-seq; format: cell-based, human; conditions: particularly 24 hours post-treatment
Description: Estimates of the effects of perturbations on relative cell line abundance were obtained by counting the number of (QC-passing) single cells from each cell line in each treatment condition, adding a ‘pseudo-count’ of 1, and normalizing counts across cell lines per condition. These relative abundance estimates were averaged across samples for each treatment condition to compute the log2-fold-change difference between drug-treated and control relative cell line abundances.
For selective compounds, cell cycle effects were also well-correlated with measured viability effects, such that drugs typically had larger effects in more sensitive cell lines (FIG. 18).

cancer cell lines = conditions: GDSC and PRISM drug sensitivity data; cited from earlier work
pool of 24 cell lines = test: Trametinib time course: MIX-Seq combined with Cell Hashing; format: cell-based, human
Experimental: For the trametinib time course experiment, cells were treated with trametinib with a staggered dosing schedule so all timepoints could be collected simultaneously. Cells were plated 19 hours prior to the first drug treatment, corresponding to the 48 hour time point. Cells were harvested for 10× capture ˜67 hours after initial seeding.
Cell Hashing (Stoeckius et al., 2018) was performed using the cell harvest method described above with the following changes. All steps were performed on ice. Harvested cells were resuspended in Cell Hashing Staining Buffer (lx PBS with 2% BSA and 0.02% Tween) prior to cell counting. Samples were counted in duplicate with two technical replicates by Countess (Life Technologies) to estimate total cell number. Up to 1,000,000 cells (range 3e5-1e6 cells) were resuspended in 100 microliters of Cell Hashing Staining Buffer. Cells were blocked with 10 microliters of Human TruStain FcX blocking solution (BioLegend) for 10 minutes at 4° C. 100 microliter cell suspensions in Cell Hashing Staining Buffer were then incubated with 2 μL of the appropriate BioLegend TotalSeq™-A Hashing antibody A Hashing antibody (a 1:50 dilution, using a total of 1 μg of antibody per cell suspension). TotalSeq™-A anti-human Hashtag antibodies #4-10 and 12-15 (product codes: 394607, 394609, 394611, 394613, 394615, 394617, 394619, 394623, 394625, 394627, 394629) were used. Cells were washed three times with 0.5 mL of Cell Hashing Staining Buffer and filtered through low volume 40 μm cell strainers (Flowmi). All cell suspensions were recounted to achieve a uniform concentration of 1,500 cells per microliter before pooling for 10× capture. A detailed general protocol is available (www.protocols.io/private/4AC0F6594480B498D8B60EAF6F518E66).
Classification of single-cell treatment conditions, as well as doublet classification, from the hashtag read counts data were performed using DemuxEM (Gaublomme et al. 2019), with default parameters.
The same approach described above was used to estimate the viability-related and viability-independent components of the response at each time point post-trametinib treatment. As substantial transcriptional changes across time points after DMSO-treatment were not observed […], data across DMSO conditions was pooled for analysis.
Leveraging this, responses of a pool of 24 cell lines to trametinib were measured along five time points, ranging from 3 to 48 hours post-treatment, using Cell Hashing to multiplex treatment conditions (FIG. 5A). As controls, DMSO-treated samples were included at each of the 5 time points, in addition to untreated samples, for a total of 11 conditions. Hashtag reads provided robust labeling of treatment conditions, with good tagging efficiency across all cell lines (FIGS. 21A and 21B). Since substantial differences in DMSO-treated cells were not observed across time points (FIG. 22), they were pooled together for subsequent analysis, yielding a total of 13,713 clearly-tagged single cells across all treatment conditions and cell lines.

[3] = test system: pools of cancer cell lines; test: Single-cell heterogeneity analysis of drug responses (clustering of scRNA-seq profiles); format: cell-based, human; conditions: lung cell line IALM, 24 hours post-treatment
Description: Specifically, the edgeR quasi-likelihood approach was used (Lun et al. 2016), following the pipeline in Soneson et al. 2018, with the cell detection rate (the fraction of genes with non-zero reads detected) included as a covariate.
To identify subpopulations of bortezomib treated cells (FIGS. 4D-4F), Seurat's default methods were used to normalize the data, detect variable genes, and compute PCs (using 5000 most variable genes, and 50 PCs). Seurat's default clustering methods were then used to cluster cells for each cell line (using the 20 nearest neighbors, and a clustering resolution parameter of 0.25).
To identify sub-populations of cells from a given cell line in a consistent fashion across baseline and treatment conditions (for analysis and presentation in FIG. 19), the following procedure was employed. After restricting to cells from the target cell line, the scTransform method (Hafemeiester et al. 2019) was used to normalize the data, identify 5,000 variable genes, and regress out experimental condition as a covariate to align clusters across conditions. Seurat's default clustering methods (using the top 10 PCs, 20 nearest neighbors, and a clustering resolution parameter of 0.25) were then used to identify clusters jointly across treated and control cells.

[4] = 99 cell-line pool, 24 hours post-treatment
[5] = integrating across all cell lines

SMILES | robust transcriptional response signature ([1]; 6 and/or 24 hours post-treatment) | drug-induced change in relative cell abundance versus measured drug sensitivity [2] | long-term viability response across cell lines (cancer cell lines) | viability-independent response component (β0) [1, 4] | viability-related response component (β1) [1, 4] | EGR1 expression (pool of 24 cell lines; 3 hours after treatment, sensitive cell line RCM1 and insensitive line TEN) | time at which viability-independent down-regulation of the KRAS signaling pathway emerged (pool of 24 cell lines; [5]) | time at which viability-related down-regulation of cell cycle genes started (pool of 24 cell lines; [5]) | time of maximal down-regulation of viability-independent genes such as EGR1 and DUSP6 (pool of 24 cell lines; [5]) | MCMI expression (pool of 24 cell lines; sensitive line RCM1 vs insensitive line TEN, time course 3 to 48 hours) | time of selective down-regulation of GINS2, E2F1 and MCM4 in sensitive cell lines (pool of 24 cell lines; viability-related response) | difference in response between two baseline subpopulations [3]
Cc1c2c(nn1C)CSCc1cc(n(C)n1)CSc1cc(c3ccccc3c1)OCCCc1c(C(=O)O)n(C)c3c-2c(Cl)ccc13 [AZD5591] | did not produce strong and/or selective transcriptional responses; also recorded: did not produce robust transcriptional response signatures; also recorded: a robust transcriptional response to the drug was not observed | this relationship was observed most strongly | strong selective viability responses |  |  |  |  |  |  |  |  | 
CC(=O)Nc1cccc(-n2c(=O)n(C3CC3)c(=O)c3c(Nc4ccc(I)cc4F)n(C)c(=O)c(C)c32)c1 [trametinib] |  |  |  | strong down-regulation of MAPK signaling genes, including EGR1, ETV4/5, DUSP4/5/6, and SPRY2/4, KRAS signaling pathways, and TNF-alpha signaling, as well as up-regulation of the interferon response | strong down-regulation of cell-cycle processes | dramatically down-regulated | 3 hours after treatment | 24 hours after treatment | 3 hours post-treatment | selectively down-regulated only in the sensitive line RCM1, and only after 12-24 hours post-treatment | 12-24 hours post-treatment | subtle but significant differences
